In PubChem BioAssay AID330 (DTP/NCI, 2004):
Several values for one entry are separate records, joined by “and”; a condition that tells them apart may be missing. Identical values can stand only once. Toxic doses and inconclusive results are not listed. Rule for the calls: active = survival T/C of 150% or more; inactive = T/C below 125% in these data.

Test system: P388 leukemia ip, CD2F1 mice, survival T/C
Assay: NCI In Vivo Anticancer Drug Screen. Data for tumor model P388 Leukemia (intraperitoneal) in CD2F1 (CDF1) mice
Conditions: endpoint: median survival time, higher = longer survival
Procedure, shortened: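 Mice carrying the transplanted tumor received test compound or vehicle. Survival was recorded in each group, and the value is the treated-group measurement divided by that of the vehicle-treated control group.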

[1] = dose: 50.0 mg/kg/injection, schedule: Q01DX005 (ip), vehicle: Klucel (hydroxypropylcellulose) (HPC)
[2] = dose: 100.0 mg/kg/injection, schedule: Q01DX005 (ip), vehicle: Klucel (hydroxypropylcellulose) (HPC)
[3] = dose: 200.0 mg/kg/injection, schedule: Q01DX005 (ip), vehicle: Klucel (hydroxypropylcellulose) (HPC)
[4] = dose: 12.5 mg/kg/injection, schedule: Q01DX005 (ip), vehicle: Klucel (hydroxypropylcellulose) (HPC)
[5] = dose: 25.0 mg/kg/injection, schedule: Q01DX005 (ip), vehicle: Klucel (hydroxypropylcellulose) (HPC)
[6] = dose: 100.0 mg/kg/injection, schedule: Q01DX009 (ip), vehicle: saline with Tween-80
[7] = dose: 200.0 mg/kg/injection, schedule: Q01DX009 (ip), vehicle: saline with Tween-80

Measured: T/C

ClCCOCCOc1c(Cl)cc(Cl)cc1Cl
inactive: dose: 100.0 mg/kg/injection, schedule: Q01DX009 (ip), vehicle: Klucel (hydroxypropylcellulose) (HPC) 93 % of control | dose: 200.0 mg/kg/injection, schedule: Q01DX009 (ip), vehicle: Klucel (hydroxypropylcellulose) (HPC) 103 % of control | dose: 400.0 mg/kg/injection, schedule: Q01DX009 (ip), vehicle: Klucel (hydroxypropylcellulose) (HPC) 100 % of control

O=C(O)c1ccc2c(c1Cl)C(=O)c1ccccc1C2=O
inactive: dose: 25.0 mg/kg/injection, schedule: Q04DX003 (ip), vehicle: Klucel (hydroxypropylcellulose) (HPC) 101 % of control | dose: 50.0 mg/kg/injection, schedule: Q04DX003 (ip), vehicle: Klucel (hydroxypropylcellulose) (HPC) 101 % of control | dose: 100.0 mg/kg/injection, schedule: Q04DX003 (ip), vehicle: Klucel (hydroxypropylcellulose) (HPC) 100 % of control

CC/C(Cc1ccc(OC)cc1)=C(/CC)c1ccc(OC)cc1
inactive: [1] 98 % of control | [2] 92 % of control | [3] 102 % of control

CSc1nnc(CCC(=O)Nc2ccc(Cl)cc2Cl)o1
inactive: dose: 60.0 mg/kg/injection, schedule: Q01DX005 (ip), vehicle: saline with Tween-80 106 % of control | dose: 120.0 mg/kg/injection, schedule: Q01DX005 (ip), vehicle: saline with Tween-80 108 % of control

Cc1cc[n+](C)c(Cc2ccccc2)c1C
inactive: [4] 97 % of control | [5] 100 % of control | [1] 112 % of control

O=C(Nc1c(Cl)cccc1Cl)OCc1ccco1
inactive: dose: 60.0 mg/kg/injection, schedule: Q01DX005 (ip), vehicle: Klucel (hydroxypropylcellulose) (HPC) 105 % of control | dose: 120.0 mg/kg/injection, schedule: Q01DX005 (ip), vehicle: Klucel (hydroxypropylcellulose) (HPC) 102 % of control | dose: 240.0 mg/kg/injection, schedule: Q01DX005 (ip), vehicle: Klucel (hydroxypropylcellulose) (HPC) 100 % of control

COc1cc(NCC(C)(O)CN(CC(C)C)CC(C)C)c2ncccc2c1 (centres undefined)
inactive: dose: 12.5 mg/kg/injection, schedule: Q01DX005 (ip), vehicle: saline 106 % of control | dose: 25.0 mg/kg/injection, schedule: Q01DX005 (ip), vehicle: saline 106 % of control | dose: 50.0 mg/kg/injection, schedule: Q01DX005 (ip), vehicle: saline 112 % of control and 97 % of control

CCC1C2Cc3ccc(O)cc3C1(CC)CCN2C (centres undefined)
inactive: dose: 6.25 mg/kg/injection, schedule: Q01DX005 (ip), vehicle: saline with Tween-80 99 % of control | dose: 12.5 mg/kg/injection, schedule: Q01DX005 (ip), vehicle: saline with Tween-80 99 % of control | dose: 25.0 mg/kg/injection, schedule: Q01DX005 (ip), vehicle: saline with Tween-80 95 % of control | [1] 103 % of control | dose: 50.0 mg/kg/injection, schedule: Q01DX005 (ip), vehicle: saline with Tween-80 100 % of control | [2] 106 % of control

O=C(NC(Cc1cnc[nH]1)C(=O)O)c1ccccc1 (centres undefined)
inactive: dose: 50.0 mg/kg/injection, schedule: Q01DX009 (ip), vehicle: saline with Tween-80 92 % of control | [6] 98 % of control | [7] 98 % of control

Clc1ccc(Nc2nnc(-c3ccc4c(c3)OCO4)o2)cc1
inactive: [1] 93 % of control | [2] 101 % of control | [3] 93 % of control

O=C(NC(=O)c1c(F)cccc1F)Nc1ccc(Cl)nc1
inactive: dose: 3.13 mg/kg/injection, schedule: Q01DX009 (ip), vehicle: saline with Tween-80 105 % of control | dose: 6.25 mg/kg/injection, schedule: Q01DX009 (ip), vehicle: saline with Tween-80 100 % of control | dose: 12.5 mg/kg/injection, schedule: Q01DX009 (ip), vehicle: saline with Tween-80 102 % of control

CC1=C2C(=CC(C)(CO)C2O)C(O)C(C)(O)C12CC2 (centres undefined)
inactive: dose: 0.78 mg/kg/injection, schedule: Q01DX009 (ip), vehicle: water 100 % of control | dose: 1.56 mg/kg/injection, schedule: Q01DX009 (ip), vehicle: water 114 % of control | dose: 3.13 mg/kg/injection, schedule: Q01DX009 (ip), vehicle: water 105 % of control | dose: 6.25 mg/kg/injection, schedule: Q01DX009 (ip), vehicle: water 112 % of control | dose: 12.5 mg/kg/injection, schedule: Q01DX009 (ip), vehicle: water 118 % of control

COc1ccc(C(=O)Cc2ccccc2C#N)cc1
inactive: dose: 100.0 mg/kg/injection, schedule: Q04DX002 (ip), vehicle: Klucel (hydroxypropylcellulose) (HPC) 100 % of control | dose: 200.0 mg/kg/injection, schedule: Q04DX002 (ip), vehicle: Klucel (hydroxypropylcellulose) (HPC) 99 % of control | dose: 400.0 mg/kg/injection, schedule: Q04DX002 (ip), vehicle: Klucel (hydroxypropylcellulose) (HPC) 99 % of control

O=c1cc[nH]c2ccc3ccccc3c12
inactive: dose: 100.0 mg/kg/injection, schedule: Q01DX001 (ip), vehicle: Klucel (hydroxypropylcellulose) (HPC) 97 % of control | dose: 200.0 mg/kg/injection, schedule: Q01DX001 (ip), vehicle: Klucel (hydroxypropylcellulose) (HPC) 96 % of control

c1ccc(CCn2c(-c3ccccn3)nc3ccccc32)nc1
inactive: [5] 105 % of control | [1] 99 % of control | [2] 99 % of control

CCOC(=O)C1=C(C(C)=O)C(c2ccc(OC)c(OC)c2)C(C(C)=O)=C(C(=O)OCC)N1
inactive: dose: 60.0 mg/kg/injection, schedule: Q01DX005 (ip), vehicle: saline 102 % of control | dose: 120.0 mg/kg/injection, schedule: Q01DX005 (ip), vehicle: saline 100 % of control

O=C(O)c1nn(-c2ccc(Cl)cc2)c2c1C(=O)c1ccccc1C2=O
inactive: [4] 98 % of control | [5] 91 % of control | [1] 98 % of control and 89 % of control | [2] 92 % of control | [3] 103 % of control

CC(C)n1c(=S)[nH]c2ccccc2c1=O
inactive: [6] 90 % of control | dose: 100.0 mg/kg/injection, schedule: Q04DX003 (ip), vehicle: saline with Tween-80 95 % of control | [7] 90 % of control | dose: 200.0 mg/kg/injection, schedule: Q04DX003 (ip), vehicle: saline with Tween-80 95 % of control | dose: 400.0 mg/kg/injection, schedule: Q01DX009 (ip), vehicle: saline with Tween-80 95 % of control | dose: 400.0 mg/kg/injection, schedule: Q04DX003 (ip), vehicle: saline with Tween-80 91 % of control

CC1/C(=N\N=C(N)N)c2ccccc2/C1=N/N=C(N)N (centres undefined)
inactive: dose: 25.0 mg/kg/injection, schedule: Q01DX001 (ip), vehicle: saline 106 % of control | dose: 50.0 mg/kg/injection, schedule: Q01DX001 (ip), vehicle: saline 102 % of control | dose: 100.0 mg/kg/injection, schedule: Q01DX001 (ip), vehicle: saline 99 % of control
